What is called pIC50 is −log10 of the IC50, conventionally taken in molar units. Higher therefore signals a low IC50.

SMILES strings stand for the structures. pIC50: −log10 of the molar value. The source made the active and inactive calls. No cut-off for these calls is given here.

Test [1] is described as follows: Induction of linear pBR322 DNA interstrand crosslinking. The class given is functional.
Test [2] is described as follows: Induction of supercoiled pBR322 DNA strand cleavage. The class given is functional.
In test [3] the test system is P815. The test is described as follows: Cytotoxicity against mouse P815 cells after 3 days. To be noted: P815, 72 h. The class given is cell-based.
Test [4] is described as follows: Induction of pBR322 DNA alkylation at 100 uM by thermally induced cleavage assay. The test is classed as functional.
Test [5] can be described thus: Induction of linear pBR322 DNA interstrand crosslinking at 10 uM. The test is classed as functional.
Test [6] can be described thus: Induction of pBR322 DNA alkylation at 10 uM by thermally induced cleavage assay. The class given is functional.
Test [7] in a line: Induction of supercoiled pBR322 DNA strand cleavage at 6.6 uM. The class given is functional.
For test [8], the system named is P815. The test is described as follows: Cell cycle arrest in mouse P815 cells by accumulation at subG0 phase at 0.026 uM. The test is classed as functional.
Test [9] can be described thus: Induction of pBR322 DNA alkylation at 1 uM by thermally induced cleavage assay. The class given is functional.
Test [10] can be described thus: Induction of pBR322 DNA alkylation at 0.1 uM by thermally induced cleavage assay. The test is classed as functional.

For `C=C1C[C@H]2C=Nc3cc(OCCCOc4cc5c(cc4OC)C(=O)N4CC(=C)C[C@H]4C=N5)c(OC)cc3C(=O)N2C1`, in [1], the outcome was Active.

Regarding `COC(=O)CCOc1cc2c(cc1OC)C(=O)N1CCC[C@H]1C=N2`, the Activity in [2] stood at 4%. Moreover, in the test with P815 [3], the pIC50 was 4.26. In [4], the result was inactive. Turning to `COc1cc2c(cc1OCCC(=O)Nc1ccc3oc(C(=O)Nc4cc(N)c5ccccc5c4CCCl)cc3c1)N=C[C@@H]1CCCN1C2=O`, the outcome in test [5], in test [6] and in test [9] was Active. Also, the Activity amounted to 16% in test [7] and 21% in the test with P815 [8]. Moreover, the pIC50 in the test with P815 [3] is 7.59. In the test with P815 [3], `COc1cc2cc(C(=O)Nc3cc(N)c4ccccc4c3CCCl)[nH]c2c(OC)c1OC` [CENTANAMYCIN] gave a pIC50 of 7.17.

In turn, `COc1cc2c(cc1OCCC(=O)Nc1ccc3oc(C(=O)Nc4cc(O)ccc4CCCl)cc3c1)N=C[C@@H]1CCCN1C2=O` gave a pIC50 with P815 [3] of 6.25.

For the compound `Nc1cc(NC(=O)c2cc3cc(NC(=O)Nc4ccc5oc(C(=O)Nc6cc(N)c7ccccc7c6CCCl)cc5c4)ccc3o2)c(CCCl)c2ccccc12`, the pIC50 in the test with P815 [3] was 4.38. `COc1cc2cc(C(=O)N3CC(CCl)c4c3cc(O)c3ccccc43)[nH]c2c(OC)c1OC` (stereo not given) gave a pIC50 in the test on P815 [3] of 8.07. Take `COc1c(O)c2c(c3cc(C(=O)N4CCc5c4c(O)c(OC)c4[nH]c(C(=O)N6C[C@H]7C[C@@]78C6=CC(=O)c6[nH]cc(C)c68)cc54)[nH]c13)CCN2C(N)=O`: the result in test [10] was Active.
